Data taken from ChEMBL document CHEMBL1132301, “Carbonic anhydrase inhibitors. Synthesis of water-soluble, topically effective, intraocular pressure-lowering aromatic/heterocyclic sulfonamides containing cationic or anionic moieties: is the tail more important than the ring?” (J Med Chem, 1999).
≈ marks a conversion by molar mass, not a printed value.

How the values were obtained:
Carbonic anhydrase 4 = molecular target: T1, Carbonic anhydrase 4 (Bos taurus, UniProt Q95323)
T1 sequence (Q95323 whole entry): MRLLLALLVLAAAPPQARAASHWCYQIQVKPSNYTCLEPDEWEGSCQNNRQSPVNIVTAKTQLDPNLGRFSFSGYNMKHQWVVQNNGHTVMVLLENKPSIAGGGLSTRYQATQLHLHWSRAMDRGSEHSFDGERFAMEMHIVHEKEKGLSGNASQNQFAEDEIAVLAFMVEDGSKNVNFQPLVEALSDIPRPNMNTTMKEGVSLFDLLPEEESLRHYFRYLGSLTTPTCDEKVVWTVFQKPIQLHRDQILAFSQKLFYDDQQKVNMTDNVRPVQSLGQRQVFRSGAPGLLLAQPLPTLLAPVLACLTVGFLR
Description: Inhibitory activity against bovine lung microsomes carbonic anhydrase isozyme IV (bCA IV).

Oryctolagus cuniculus [1] = species: Oryctolagus cuniculus; format: functional, Eye
Description: In vivo fall of IOP of normotensive rabbits after treatment with 1 drop(50 microL) of 2% solution of CA inhibitor with pH value 5.5 into the eye at 0 min

Carbonic anhydrase 1 [2] = molecular target: T2, Carbonic anhydrase 1 (Homo sapiens, UniProt P00915)
Description: Inhibitory activity against human cloned carbonic anhydrase isozyme I (hCA I, cytosolic form).

Carbonic anhydrase 2 [3] = molecular target: T3, Carbonic anhydrase 2 (Homo sapiens, UniProt P00918)
Description: Inhibitory activity against human recombinant carbonic anhydrase II

Carbonic anhydrase 2 [4] = molecular target: T3, Carbonic anhydrase 2; remark: listed apart in the source
Description: Inhibitory activity against human cloned Carbonic anhydrase II (hCA II, cytosolic form).

Carbonic anhydrase 1 [5] = molecular target: T2, Carbonic anhydrase 1; remark: listed apart in the source
Description: Inhibition of human cloned Carbonic anhydrase I (hCA I,cytosolic form)

Oryctolagus cuniculus [6] = species: Oryctolagus cuniculus; format: functional, Eye; remark: listed apart in the source
Description: In vivo fall of IOP of normotensive rabbits after treatment with 1 drop(50 microL) of 2% solution of CA inhibitor with pH value 5.5 into the eye at 90 min.

Oryctolagus cuniculus [7] = species: Oryctolagus cuniculus; format: functional, Eye; remark: listed apart in the source
Description: In vivo fall of IOP of normotensive rabbits after treatment with 1 drop(50 microL) of 2% solution of CA inhibitor with pH value 5.5 into the eye at 60 min

Oryctolagus cuniculus [8] = species: Oryctolagus cuniculus; format: functional, Eye; remark: listed apart in the source
Description: In vivo fall of IOP of normotensive rabbits after treatment with 1 drop(50 microL) of 2% solution of CA inhibitor with pH value 5.5 into the eye at 30 min

[9] = octanol/water
Description: Partition coefficient (logD) (chloroform/buffer)

Oryctolagus cuniculus [10] = species: Oryctolagus cuniculus
Description: Compound was tested in vitro for corneal permeability of compound across the Denuded epithelial cornea obtained from rabbit

[11] = Compound was tested for solubility in pH buffer, at 25 degree C.; format: ADME
Oryctolagus cuniculus [12] = species: Oryctolagus cuniculus; remark: listed apart in the source
Description: Compound was tested in vitro for corneal permeability of compound across the intact cornea obtained from rabbit

T2 sequence (P00915 whole entry): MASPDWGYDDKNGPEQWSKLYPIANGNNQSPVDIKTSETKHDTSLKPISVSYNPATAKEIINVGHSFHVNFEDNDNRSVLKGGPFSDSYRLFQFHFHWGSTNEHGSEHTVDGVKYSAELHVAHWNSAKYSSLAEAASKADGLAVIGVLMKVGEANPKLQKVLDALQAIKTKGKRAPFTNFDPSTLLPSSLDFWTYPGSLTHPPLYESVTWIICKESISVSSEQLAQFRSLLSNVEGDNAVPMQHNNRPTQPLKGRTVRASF

| SMILES | Ki (Carbonic anhydrase 4) | Ki (Carbonic anhydrase 1 [2]) | Ki (Carbonic anhydrase 2 [3]) | further results |
| --- | --- | --- | --- | --- |
| NCCC(=O)Nc1nnc(S(N)(=O)=O)s1 | 125 nM |  |  |  |
| NS(=O)(=O)c1nnc(NC(=O)c2cccc(C(=O)[O-])n2)s1.[Na+] |  |  |  | Delta IOP (Oryctolagus cuniculus [1]): 0 mmHg |
| Nc1ccc(S(N)(=O)=O)cc1I | 125 nM | 6000 nM |  |  |
| Nc1c(S(N)(=O)=O)cc(S(N)(=O)=O)c(Cl)c1Cl | 175 nM | 6100 nM |  |  |
| NS(=O)(=O)c1ccc(CONC(=O)c2cccc(C(=O)O)n2)cc1 | 120 nM | 2050 nM | 20 nM |  |
| NS(=O)(=O)c1nc2ccc(OCCO)cc2s1 | 15 nM | […] |  |  |
| NS(=O)(=O)c1ccccc1N1C(=O)c2cccnc2C1=O | 310 nM | 21000 nM | 280 nM |  |
| NS(=O)(=O)c1nc2ccc(ONC(=O)c3cccc(C(=O)O)n3)cc2s1 | 13 nM | 16 nM | 2 nM |  |
| NS(=O)(=O)c1nc2ccc(NC(=O)c3cccc(C(=O)O)n3)cc2s1 | 11 nM | 18 nM | 3 nM |  |
| NS(=O)(=O)c1ccc(N2C(=O)c3cccnc3C2=O)c(Cl)c1 | 79 nM | 620 nM | 44 nM |  |
| NS(=O)(=O)c1ccc(CNC(=O)c2cccc(C(=O)O)n2)cc1 |  |  | 36 nM |  |
| NS(=O)(=O)c1nnc(NC(=O)CCNC(=O)c2cccc(C(=O)O)n2)s1 | 9 nM | 19 nM | 2 nM |  |
| NS(=O)(=O)c1ccc(N2C(=O)c3cccnc3C2=O)c(Br)c1 | 75 nM | 605 nM | 31 nM |  |
| CCN(C(=O)c1cccnc1C(=O)O)C1CC(C)S(=O)(=O)c2sc(S(N)(=O)=O)cc21.CCN(C(=O)c1ncccc1C(=O)O)C1CC(C)S(=O)(=O)c2sc(S(N)(=O)=O)cc21 (configuration not stated) | 18 nM | 450 nM |  |  |
| NS(=O)(=O)c1ccc(NNC(=O)c2cccc(C(=O)O)n2)cc1 |  | 20600 nM | 270 nM |  |
| NS(=O)(=O)c1ccccc1NC(=O)c1cccc(C(=O)O)n1 | 300 nM |  |  |  |
| NS(=O)(=O)c1ccc(N2C(=O)c3cccnc3C2=O)c(I)c1 | 70 nM | 610 nM | 33 nM |  |
| NS(=O)(=O)c1cc(S(N)(=O)=O)c(NC(=O)c2cccc(C(=O)O)n2)cc1Cl |  |  | 9 nM |  |
| NS(=O)(=O)c1ccc(N2C(=O)c3cccnc3C2=O)cc1 | 170 nM |  |  | Ki (Carbonic anhydrase 2 [4]): 132 nM; Ki (Carbonic anhydrase 1 [5]): 15500 nM |
| Nc1ccc2nc(S(N)(=O)=O)sc2c1 | 19 nM |  |  | Ki (Carbonic anhydrase 1 [5]): 70 nM |
| NS(=O)(=O)c1nc2ccc(N3C(=O)c4cccnc4C3=O)cc2s1 | 9 nM |  |  | Ki (Carbonic anhydrase 2 [4]): 4 nM; Ki (Carbonic anhydrase 1 [5]): 12 nM |
| NS(=O)(=O)c1cc(S(N)(=O)=O)c(N2C(=O)c3cccnc3C2=O)c(Cl)c1Cl | 69 nM |  |  | Ki (Carbonic anhydrase 2 [4]): 12 nM; Ki (Carbonic anhydrase 1 [5]): 500 nM |
| Cl.NS(=O)(=O)c1ccc(NC(=O)c2cccc(C(=O)O)n2)c(F)c1 |  |  |  | Delta IOP (Oryctolagus cuniculus [6]): 3.9 mmHg; Delta IOP (Oryctolagus cuniculus [1]): 0 mmHg; Delta IOP (Oryctolagus cuniculus [7]): 4.2 mmHg; Delta IOP (Oryctolagus cuniculus [8]): 2.5 mmHg |
| Cl.NS(=O)(=O)c1nc2ccc(OCCONC(=O)c3cccc(C(=O)O)n3)cc2s1 |  |  |  | Delta IOP (Oryctolagus cuniculus [6]): 9 mmHg; Delta IOP (Oryctolagus cuniculus [1]): 0 mmHg; Delta IOP (Oryctolagus cuniculus [7]): 7.2 mmHg; Delta IOP (Oryctolagus cuniculus [8]): 4 mmHg |
| Cl.NS(=O)(=O)c1nnc(N2C(=O)c3cccnc3C2=O)s1 |  |  |  | Delta IOP (Oryctolagus cuniculus [6]): 8.1 mmHg; Delta IOP (Oryctolagus cuniculus [1]): 0 mmHg; Delta IOP (Oryctolagus cuniculus [7]): 9 mmHg; Delta IOP (Oryctolagus cuniculus [8]): 5.4 mmHg |
| Cl.NS(=O)(=O)c1ccc(CCN2C(=O)c3cccnc3C2=O)cc1 |  |  |  | Delta IOP (Oryctolagus cuniculus [6]): 4.2 mmHg; Delta IOP (Oryctolagus cuniculus [1]): 0 mmHg; Delta IOP (Oryctolagus cuniculus [7]): 4.8 mmHg; Delta IOP (Oryctolagus cuniculus [8]): 2.7 mmHg |

| SMILES | Ki (Carbonic anhydrase 4) | Ki (Carbonic anhydrase 1 [2]) | Ki (Carbonic anhydrase 2 [3]) | further results |
| --- | --- | --- | --- | --- |
| CCN(C(=O)c1cccnc1C(=O)O)C1CC(C)S(=O)(=O)c2sc(S(N)(=O)=O)cc21.CCN(C(=O)c1ncccc1C(=O)O)C1CC(C)S(=O)(=O)c2sc(S(N)(=O)=O)cc21.Cl (configuration not stated) |  |  |  | Delta IOP (Oryctolagus cuniculus [6]): 3.5 mmHg; Delta IOP (Oryctolagus cuniculus [1]): 0 mmHg; Delta IOP (Oryctolagus cuniculus [7]): 5.2 mmHg; Delta IOP (Oryctolagus cuniculus [8]): 2.4 mmHg |
| Nc1ccccc1S(N)(=O)=O | 1310 nM |  |  |  |
| Nc1ccc(S(N)(=O)=O)cc1Br | 66 nM |  |  |  |
| NS(=O)(=O)c1ccc(CCO)cc1 | 450 nM |  |  |  |
| Nc1ccc(S(N)(=O)=O)cc1F | 180 nM |  |  |  |
| NS(=O)(=O)c1nnc(NC(=O)c2cccc(C(=O)O)n2)s1 | 21 nM | 36 nM | 6 nM | logD [9]: 0.085; Kin (Oryctolagus cuniculus [10]): 6400 h⁻¹; solubility [11]: 83 mM (≈ 27.3 mg/mL); Kin (Oryctolagus cuniculus [12]): 1100 h⁻¹ |
| Cn1nc(S(N)(=O)=O)s/c1=N\C(=O)c1cccc(C(=O)O)n1 | 19 nM | 35 nM | 7 nM | logD [9]: 0.428; Kin (Oryctolagus cuniculus [10]): 8500 h⁻¹; solubility [11]: 79 mM (≈ 27.1 mg/mL); Kin (Oryctolagus cuniculus [12]): 3600 h⁻¹ |
| NS(=O)(=O)c1ccc(NC(=O)c2cccc(C(=O)O)n2)c(Br)c1 | 69 nM | 575 nM |  |  |
| NS(=O)(=O)c1cccc(N2C(=O)c3cccnc3C2=O)c1 | 305 nM |  |  | Ki (Carbonic anhydrase 2 [4]): 250 nM; Ki (Carbonic anhydrase 1 [5]): 20000 nM |
| NS(=O)(=O)c1ccc(NC(=O)c2cccc(C(=O)O)n2)c(F)c1 |  |  | 8 nM | logD [9]: 0.117; Kin (Oryctolagus cuniculus [10]): 7000 h⁻¹; solubility [11]: 66 mM (≈ 22.4 mg/mL); Kin (Oryctolagus cuniculus [12]): 1600 h⁻¹ |
| NS(=O)(=O)c1ccc(N2C(=O)c3cccnc3C2=O)c(F)c1 | 46 nM | 540 nM | 10 nM |  |
| NS(=O)(=O)c1ccc(CCN2C(=O)c3cccnc3C2=O)cc1 | 54 nM | 845 nM | 9 nM |  |
| NS(=O)(=O)c1nnc(N2C(=O)c3cccnc3C2=O)s1 | 18 nM |  |  | Ki (Carbonic anhydrase 2 [4]): 8 nM; logD [9]: 0.315; Ki (Carbonic anhydrase 1 [5]): 39 nM; Kin (Oryctolagus cuniculus [10]): 7600 h⁻¹; solubility [11]: 72 mM (≈ 22.4 mg/mL); Kin (Oryctolagus cuniculus [12]): 2500 h⁻¹ |
| NS(=O)(=O)c1cc(S(N)(=O)=O)c(N2C(=O)c3cccnc3C2=O)cc1Cl | 60 nM |  |  | Ki (Carbonic anhydrase 2 [4]): 9 nM; Ki (Carbonic anhydrase 1 [5]): 600 nM |
| NS(=O)(=O)c1ccc(CCNC(=O)c2cccc(C(=O)O)n2)cc1 |  |  | 7 nM |  |
| NS(=O)(=O)c1ccc(NC(=O)c2cccc(C(=O)O)n2)c(I)c1 |  | 600 nM |  |  |
| NS(=O)(=O)c1nc2ccc(OCCONC(=O)c3cccc(C(=O)O)n3)cc2s1 | 10 nM | 15 nM | 3 nM |  |
| NS(=O)(=O)c1ccc(CN2C(=O)c3cccnc3C2=O)cc1 | 79 nM |  | 42 nM |  |
| NS(=O)(=O)c1cc(S(N)(=O)=O)c(NC(=O)c2cccc(C(=O)O)n2)c(Cl)c1Cl | 55 nM | 450 nM | 10 nM |  |
| NS(=O)(=O)c1ccc(CCONC(=O)c2cccc(C(=O)O)n2)cc1 | 105 nM | 2000 nM | 15 nM |  |
| NS(=O)(=O)c1ccc(NC(=O)c2cccc(C(=O)O)n2)c(Cl)c1 | 66 nM |  |  | Ki (Carbonic anhydrase 1 [5]): 600 nM |
| NS(=O)(=O)c1nnc(NC(=O)CCN2C(=O)c3cccnc3C2=O)s1 |  |  |  | Ki (Carbonic anhydrase 2 [4]): 3 nM; logD [9]: 0.449; Ki (Carbonic anhydrase 1 [5]): 18 nM; Kin (Oryctolagus cuniculus [10]): 9700 h⁻¹; solubility [11]: 81 mM (≈ 31 mg/mL); Kin (Oryctolagus cuniculus [12]): 3800 h⁻¹ |
| NS(=O)(=O)c1ccc(NC(=O)c2cccc(C(=O)O)n2)cc1 | 150 nM | 15000 nM |  |  |
| NS(=O)(=O)c1ccc(NN2C(=O)c3cccnc3C2=O)cc1 | 300 nM | 21500 nM | 275 nM |  |
| NS(=O)(=O)c1cccc(NC(=O)c2cccc(C(=O)O)n2)c1 | 285 nM |  |  |  |
| CCOc1ccc2nc(S(N)(=O)=O)sc2c1 [ETHOXZOLAMIDE] |  |  |  | solubility [11]: 0.04 mM (≈ 0.0103 mg/mL) |
